From ChEMBL document CHEMBL1138694, “Discovery of small molecule antagonists of TRPV1” (2004) come the findings set out here.

In test [1] the target is Transient receptor potential cation channel subfamily V member 1 (Homo sapiens) (UniProt Q8NER1). In words: Antagonistic activity against human transient receptor potential vanilloid type 1 in FLIPR assay. The test is classed as functional.
The nature of test [2]: Antagonistic activity against rat transient receptor potential vanilloid type 1 expressed in HEK293 cells compared to capsaicin. The test is classed as functional.
The target of test [3] is Transient receptor potential cation channel subfamily V member 1 (Cavia porcellus) (UniProt Q6R5A3). In words: Antagonistic activity against guinea pig Transient receptor potential vanilloid type 1 expressed in HEK293 cells compared to capsaicin.
Chain of Transient receptor potential cation channel subfamily V member 1 (Cavia porcellus) (Q6R5A3 whole entry, looked up): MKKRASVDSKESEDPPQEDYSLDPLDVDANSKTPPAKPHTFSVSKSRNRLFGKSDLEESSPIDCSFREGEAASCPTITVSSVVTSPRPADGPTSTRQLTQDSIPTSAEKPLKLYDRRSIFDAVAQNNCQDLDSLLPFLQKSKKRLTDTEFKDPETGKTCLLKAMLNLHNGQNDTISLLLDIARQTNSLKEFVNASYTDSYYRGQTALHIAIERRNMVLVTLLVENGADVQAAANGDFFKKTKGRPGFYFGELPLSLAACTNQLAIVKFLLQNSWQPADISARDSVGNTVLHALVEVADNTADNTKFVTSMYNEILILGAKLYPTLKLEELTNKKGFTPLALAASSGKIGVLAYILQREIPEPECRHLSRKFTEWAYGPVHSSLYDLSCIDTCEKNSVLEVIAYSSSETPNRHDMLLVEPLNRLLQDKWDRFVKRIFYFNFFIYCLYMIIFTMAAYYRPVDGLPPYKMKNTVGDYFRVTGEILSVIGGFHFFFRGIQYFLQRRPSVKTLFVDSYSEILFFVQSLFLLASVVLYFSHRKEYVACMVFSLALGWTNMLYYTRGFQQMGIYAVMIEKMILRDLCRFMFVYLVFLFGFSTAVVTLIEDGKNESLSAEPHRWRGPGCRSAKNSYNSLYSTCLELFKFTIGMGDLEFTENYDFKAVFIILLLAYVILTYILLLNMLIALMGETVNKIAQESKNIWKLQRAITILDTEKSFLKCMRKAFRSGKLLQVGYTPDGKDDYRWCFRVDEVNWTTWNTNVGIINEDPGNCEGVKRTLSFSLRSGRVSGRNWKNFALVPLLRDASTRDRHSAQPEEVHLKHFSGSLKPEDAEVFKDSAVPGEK
Test [4] is described as follows: Inhibition of capsaicin- response in rat dorsal root ganglion. The test is classed as functional.

Structures are written as SMILES.

Chain of Transient receptor potential cation channel subfamily V member 1 (Homo sapiens) (Q8NER1 whole entry): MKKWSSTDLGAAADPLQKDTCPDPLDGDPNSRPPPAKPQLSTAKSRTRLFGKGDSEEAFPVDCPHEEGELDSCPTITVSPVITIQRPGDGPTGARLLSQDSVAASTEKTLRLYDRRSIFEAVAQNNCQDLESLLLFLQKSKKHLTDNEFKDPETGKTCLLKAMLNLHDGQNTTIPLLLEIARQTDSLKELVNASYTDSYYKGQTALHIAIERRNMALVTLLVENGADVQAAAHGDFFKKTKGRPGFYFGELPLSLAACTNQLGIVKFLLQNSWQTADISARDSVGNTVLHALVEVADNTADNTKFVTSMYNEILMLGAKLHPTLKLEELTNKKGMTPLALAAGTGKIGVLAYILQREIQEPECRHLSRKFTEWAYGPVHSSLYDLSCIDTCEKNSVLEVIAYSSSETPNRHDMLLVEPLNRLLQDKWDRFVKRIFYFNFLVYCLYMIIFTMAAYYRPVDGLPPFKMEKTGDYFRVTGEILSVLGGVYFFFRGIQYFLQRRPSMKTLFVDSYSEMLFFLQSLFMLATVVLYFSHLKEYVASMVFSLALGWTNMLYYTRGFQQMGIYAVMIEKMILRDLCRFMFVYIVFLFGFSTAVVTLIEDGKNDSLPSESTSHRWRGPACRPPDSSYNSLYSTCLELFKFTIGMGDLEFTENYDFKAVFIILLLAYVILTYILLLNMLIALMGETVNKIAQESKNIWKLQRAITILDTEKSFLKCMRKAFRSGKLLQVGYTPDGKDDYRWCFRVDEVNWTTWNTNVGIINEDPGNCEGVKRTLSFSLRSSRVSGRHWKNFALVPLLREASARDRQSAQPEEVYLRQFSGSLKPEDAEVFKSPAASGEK

Compound `Oc1cc2c(cc1O)CN(C(=S)NCCc1ccc(Cl)cc1)CCC2` showed a pKb in test [1] of 7.5.

`CCN(CCNC(=O)Nc1ccccc1Br)c1cccc(C)c1`: the pKb in test [2] worked out at 7.7; in test [3], 7.5; in test [1], 7.8; in test [4], 7.4.

Regarding `COc1cccc(NC(=O)/C=C/c2ccc(Cl)cc2)c1`, the pKb in test [1] was 7.7.

The pKb is −log10 of the Kb, conventionally taken in molar units. Lower therefore signals a high Kb.
